# Results taken from PubChem BioAssay AID1963959 (Molecular Pharmacology Branch, DTP, NCI, 2024).
# pIC50: −log10 of the molar value.
# System: T-47D spheroids with HUVEC/MSC, viability
# Assay: Anticancer human tumor T-47D cell line growth inhibition [PI3K];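 note: spheroids exposed to agents for seven days before reading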;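 for viability, T/C: percent of DMSO vehicle control luminescence so 100% = untreated growth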
# Settings: for pIC50: curve of first compound; for viability, T/C: stronger effect = lower value
# Text: Combinatorial screen of targeted agents with the PI3K inhibitors inavolisib, alpelisib, duvelisib, and copanlisib in multi-cell type tumor spheroids
# A high-throughput screen of multi-cell type tumor spheroids was designed to identify active combinations of targeted small molecules and PI3K pathway inhibitors. Complex spheroids include a stromal component modeled by human endothelial cells (HUVEC) and fibroblasts modeled by human mesenchymal stem cells (MSCs). The concentration ranges selected for each drug and investigational agent were based upon clinically achievable concentrations if the clinical Cmax of the agent was known.
# Compounds. The drugs and investigational agents: inavolisib (NSC800729), alpelisib (NSC765974), duvelisib (NSC772469), copanlisib (NSC816437), ipatasertib (NSC767898), afuresertib (NSC778305), talazoparib (NSC767125), sapanisertib (NSC764658), selumetinib (NSC741078), tovorafenib (DAY101, NSC766906), vemurafenib (NSC761431), ravoxertinib (NSC781343), sotorasib (NSC818433), MRTX1133 (NSC 836407), abemaciclib (NSC 768073), palbociclib (NSC758247), venetoclax (NSC 766270), SY5609 (NSC837396), enzalutamide (NSC755605), and darolutamide (NSC825331), were obtained from the National Cancer Institute (NCI) Developmental Therapeutics Program Chemical Repository. The FDA-approved anticancer drug set is available from the NCI Developmental Therapeutics Program. […] The stock solutions were prepared in dimethyl sulfoxide (DMSO, Sigma-Aldrich, St. Louis, MO, cat. D2650) at 800-fold the tested concentration and stored at -70 degrees C prior to their use. All drugs and investigational agents were tested over a range starting from a high concentration at or near the clinical Cmax and decreasing in half-log increments. If the clinical Cmax for an agent had not been determined, the highest concentration tested was 10 microM.
# Cell Culture. All cells were maintained in an incubator at 37 degrees C and 5% CO2 with 95% humidity. The PDC lines were cultured according to standard operating procedures established by the NCI PDMR (https://pdmr.cancer.gov/sops/default.htm). All PDCs were thawed and cultured in Matrigel-coated flasks prepared with a working solution of 1X Ham's F-12 nutrient mix, without supplementation (Invitrogen, Waltham, MA, cat. 11765054), 100 U/mL penicillin-streptomycin (Invitrogen, cat. 15140122), and 2.5% Matrigel (Corning Inc., Corning, NY, cat. 354248) for the first three passages. The 354836-022-R-J1-PDC, 475296-252-R-J1-PDC, and 997726-040-R-J2-PDC lines were cultured in 6A media, which includes advanced DMEM/F-12 (Thermo Fisher Scientific, cat. 12634028), 10 mM HEPES (Thermo Fisher Scientific, cat. 15630080), 1X GlutaMAX supplement (Thermo Fisher Scientific, cat. 35050061), 0.1 mg/mL primocin (InvivoGen, San Diego, CA, cat. ant-pm-2), 10% defined fetal bovine serum, heat inactivated (HyClone Laboratories Inc., Logan, UT, cat. SH30070.03HI), 50% L-WRN conditioned media (ATCC, cat. CRL-3276), 1.25 mM N-Acetyl-L-cysteine (Sigma-Aldrich, cat. A9165), 10 mM nicotinamide (Sigma-Aldrich, cat. N0636), 1X B-27 supplement (Thermo Fisher Scientific, cat. 17504044), 1X N-2 supplement (Thermo Fisher Scientific, cat. 17502048), and 10 microM Y-27632 dihydrochloride (Tocris Bioscience, Bristol, United Kingdom, cat. 1254). The 624824-186-R-J2-PDC line was cultured in 6C/Colon 1B media, which includes all 6A media components plus 50 ng/mL human EGF recombinant protein (Thermo Fisher Scientific, cat. PHG0311). […]
# [1] = second compound 0.00316 µM, first compound 0.000316 µM
# [2] = second compound 0.00316 µM, first compound 0.001 µM
# [3] = second compound 0.00316 µM, first compound 0.00316 µM
# [4] = second compound 0.00316 µM, first compound 0.01 µM
# [5] = second compound 0.00316 µM, first compound 0.0316 µM
# [6] = second compound 0.00316 µM, first compound 0.1 µM
# [7] = second compound 0.01 µM, first compound 0.000316 µM
# [8] = second compound 0.01 µM, first compound 0.001 µM
# [9] = second compound 0.01 µM, first compound 0.00316 µM
# [10] = second compound 0.01 µM, first compound 0.01 µM
# [11] = second compound 0.01 µM, first compound 0.0316 µM
# [12] = second compound 0.01 µM, first compound 0.1 µM
# [13] = second compound 0.0316 µM, first compound 0.000316 µM
# [14] = second compound 0.0316 µM, first compound 0.001 µM
# [15] = second compound 0.0316 µM, first compound 0.00316 µM
# [16] = second compound 0.0316 µM, first compound 0.01 µM
# [17] = second compound 0.0316 µM, first compound 0.0316 µM
# [18] = second compound 0.0316 µM, first compound 0.1 µM
# [19] = second compound 0.1 µM, first compound 0.000316 µM
# [20] = second compound 0.1 µM, first compound 0.001 µM
# [21] = second compound 0.1 µM, first compound 0.00316 µM
# [22] = second compound 0.1 µM, first compound 0.01 µM
# [23] = second compound 0.1 µM, first compound 0.0316 µM
# [24] = second compound 0.1 µM, first compound 0.1 µM
# [25] = second compound 0.316 µM, first compound 0.000316 µM
# [26] = second compound 0.316 µM, first compound 0.001 µM
# [27] = second compound 0.316 µM, first compound 0.00316 µM
# [28] = second compound 0.316 µM, first compound 0.01 µM
# [29] = second compound 0.316 µM, first compound 0.0316 µM
# [30] = second compound 0.316 µM, first compound 0.1 µM
# [31] = second compound 1 µM, first compound 0.000316 µM
# [32] = second compound 1 µM, first compound 0.001 µM
# [33] = second compound 1 µM, first compound 0.00316 µM
# [34] = second compound 1 µM, first compound 0.01 µM
# [35] = second compound 1 µM, first compound 0.0316 µM
# [36] = second compound 1 µM, first compound 0.1 µM
smiles,measurement,setting,value
CC(=O)c1c(C)c2cnc(Nc3ccc(N4CCNCC4)cn3)nc2n(C2CCCC2)c1=O + CC(Nc1ccc2c(c1)OCCn1cc(N3C(=O)OCC3C(F)F)nc1-2)C(N)=O,pIC50,second compound 0.00316 µM,< 7.00
same,pIC50,second compound 0.01 µM,< 7.00
same,pIC50,second compound 0.0316 µM,< 7.00
same,pIC50,second compound 0.1 µM,< 7.00
same,pIC50,second compound 0.316 µM,< 7.00
same,pIC50,second compound 1 µM,> 9.50
same,"viability, T/C",[1],92.1%
same,"viability, T/C",[2],90.5%
same,"viability, T/C",[3],82.9%
same,"viability, T/C",[4],95.3%
same,"viability, T/C",[5],64.4%
same,"viability, T/C",[6],86%
same,"viability, T/C",[7],83.8%
same,"viability, T/C",[8],121%
same,"viability, T/C",[9],71.9%
same,"viability, T/C",[10],75.3%
same,"viability, T/C",[11],78.6%
same,"viability, T/C",[12],69.8%
same,"viability, T/C",[13],70.1%
same,"viability, T/C",[14],85.8%
same,"viability, T/C",[15],76.1%
same,"viability, T/C",[16],83.6%
same,"viability, T/C",[17],69.8%
same,"viability, T/C",[18],67.1%
same,"viability, T/C",[19],84.7%
same,"viability, T/C",[20],89.8%
same,"viability, T/C",[21],76%
same,"viability, T/C",[22],65.7%
same,"viability, T/C",[23],77%
same,"viability, T/C",[24],54.5%
same,"viability, T/C",[25],59.4%
same,"viability, T/C",[26],65.9%
same,"viability, T/C",[27],48.9%
same,"viability, T/C",[28],56.7%
same,"viability, T/C",[29],43.4%
same,"viability, T/C",[30],60.1%
same,"viability, T/C",[31],39.9%
same,"viability, T/C",[32],55.6%
same,"viability, T/C",[33],49.5%
same,"viability, T/C",[34],41%
same,"viability, T/C",[35],38.9%
same,"viability, T/C",[36],32.6%
CC(C)n1nc(-c2ccc3oc(N)nc3c2)c2c(N)ncnc21 + CC(Nc1ccc2c(c1)OCCn1cc(N3C(=O)OCC3C(F)F)nc1-2)C(N)=O,pIC50,second compound 0.00316 µM,7.16
same,pIC50,second compound 0.01 µM,7.22
same,pIC50,second compound 0.0316 µM,7.29
same,pIC50,second compound 0.1 µM,7.55
same,pIC50,second compound 0.316 µM,8.25
same,pIC50,second compound 1 µM,8.64
same,"viability, T/C",[1],112%
same,"viability, T/C",[2],98%
same,"viability, T/C",[3],110%
same,"viability, T/C",[4],91.2%
same,"viability, T/C",[5],88.6%
same,"viability, T/C",[6],33%
same,"viability, T/C",[7],89.2%
same,"viability, T/C",[8],97.4%
same,"viability, T/C",[9],94.4%
same,"viability, T/C",[10],83.2%
same,"viability, T/C",[11],72.5%
same,"viability, T/C",[12],32.2%
same,"viability, T/C",[13],94.6%
same,"viability, T/C",[14],101%
same,"viability, T/C",[15],84.5%
same,"viability, T/C",[16],82.4%
same,"viability, T/C",[17],70.5%
same,"viability, T/C",[18],25.5%
same,"viability, T/C",[19],76%
same,"viability, T/C",[20],90.8%
same,"viability, T/C",[21],89.9%
same,"viability, T/C",[22],71.1%
same,"viability, T/C",[23],48.5%
same,"viability, T/C",[24],17%
same,"viability, T/C",[25],68.2%
same,"viability, T/C",[26],65.1%
same,"viability, T/C",[27],56.5%
same,"viability, T/C",[28],41.8%
same,"viability, T/C",[29],29.9%
same,"viability, T/C",[30],5.87%
same,"viability, T/C",[31],57.6%
same,"viability, T/C",[32],56.2%
same,"viability, T/C",[33],47.9%
same,"viability, T/C",[34],34.4%
same,"viability, T/C",[35],18.8%
same,"viability, T/C",[36],3.47%
CCCS(=O)(=O)Nc1ccc(F)c(C(=O)c2c[nH]c3ncc(-c4ccc(Cl)cc4)cc23)c1F + CC(Nc1ccc2c(c1)OCCn1cc(N3C(=O)OCC3C(F)F)nc1-2)C(N)=O,pIC50,second compound 0.00316 µM,5.04
same,pIC50,second compound 0.01 µM,5.02
same,pIC50,second compound 0.0316 µM,5.07
same,pIC50,second compound 0.1 µM,5.16
same,pIC50,second compound 0.316 µM,5.30
same,pIC50,second compound 1 µM,5.49
same,"viability, T/C",[5],99.3%
same,"viability, T/C",[6],87.8%
same,"viability, T/C","second compound 0.00316 µM, first compound 0.316 µM",108%
same,"viability, T/C","second compound 0.00316 µM, first compound 1 µM",79.2%
same,"viability, T/C","second compound 0.00316 µM, first compound 3.16 µM",103%
same,"viability, T/C","second compound 0.00316 µM, first compound 10 µM",46.3%
same,"viability, T/C",[11],99%
same,"viability, T/C",[12],89.1%
same,"viability, T/C","second compound 0.01 µM, first compound 0.316 µM",98.5%
same,"viability, T/C","second compound 0.01 µM, first compound 1 µM",70.7%
same,"viability, T/C","second compound 0.01 µM, first compound 3.16 µM",87.8%
same,"viability, T/C","second compound 0.01 µM, first compound 10 µM",47%
same,"viability, T/C",[17],80.3%
same,"viability, T/C",[18],90.2%
same,"viability, T/C","second compound 0.0316 µM, first compound 0.316 µM",102%
same,"viability, T/C","second compound 0.0316 µM, first compound 1 µM",97.3%
same,"viability, T/C","second compound 0.0316 µM, first compound 3.16 µM",98.7%
same,"viability, T/C","second compound 0.0316 µM, first compound 10 µM",43%
same,"viability, T/C",[23],83.2%
same,"viability, T/C",[24],82.8%
same,"viability, T/C","second compound 0.1 µM, first compound 0.316 µM",97.7%
same,"viability, T/C","second compound 0.1 µM, first compound 1 µM",91.3%
same,"viability, T/C","second compound 0.1 µM, first compound 3.16 µM",74.2%
same,"viability, T/C","second compound 0.1 µM, first compound 10 µM",38.9%
same,"viability, T/C",[29],69.3%
same,"viability, T/C",[30],79.3%
same,"viability, T/C","second compound 0.316 µM, first compound 0.316 µM",66.9%
same,"viability, T/C","second compound 0.316 µM, first compound 1 µM",70.9%
same,"viability, T/C","second compound 0.316 µM, first compound 3.16 µM",55.8%
same,"viability, T/C","second compound 0.316 µM, first compound 10 µM",41.4%
same,"viability, T/C",[35],48.5%
same,"viability, T/C",[36],55.1%
same,"viability, T/C","second compound 1 µM, first compound 0.316 µM",69.4%
same,"viability, T/C","second compound 1 µM, first compound 1 µM",51.5%
same,"viability, T/C","second compound 1 µM, first compound 3.16 µM",49.1%
same,"viability, T/C","second compound 1 µM, first compound 10 µM",35.5%
